In patent US20100119595A1, “Monounsaturated fatty acids and perhydrocyclopentanophenanthrene nucleus combination molecules, and their precursors, and the use of all of these as weight-loss agents” (priority 2001, published 2010):

Assays:
[1] = test system: MCF-7 human breast cancer cell line; assay: MCF-7 human breast cancer cell line test; type: cell-based; details: MCF-7 human breast cancer cells
From the text: The practical use of any compound given to humans for the treatment of obesity require, of course, that the compound not only be effective, but able to pass the FDA requirements and be approved as a drug suitable for humans. […] One test used to determine reactivity with human breast cancer cells is the “MCF-7 human breast cancer cell line test”. The lower the concentration of drug required to produce agonist activity, the more potential there is for problems with cancer causing &/or promotion in humans A comfortable level in the pharmaceutical industry would be a reactivity in the micromolar range. In the case of oleyl estrone, agonist activity begins at […]; with estrone eicosenoate, agonist activity begins at a ten times greater concentration of 1.0 nanomolar. This low concentration of agonist activity mitigates the possibility that these compounds would gain FDA approval for either drug.

[2] = Dog weight-loss study, estrone eicosenoate vs oleoyl-estrone (Example 2); type: in vivo; details: oral 21 days, 5, 3.33 or 2.5 micromoles/kg vs OE 10 micromoles/kg
From the text: Dogs are selected and initial measurements taken. The initial measurements include weight and electrical impedance for each dog as measured by a standard impedance measuring device with electrodes placed between the front and rear paws. The dogs are placed individually in appropriate cages and allowed an ad libitum diet of standard dog chow and water for a 10-day period. Daily measurements include the following: • 1. Weight • 2. Weight of food consumed • 3. Water consumed, both volume and weight Every other day, the dogs' electrical impedance is measured as an indicator of fat tissue content and loss. The dogs remain confined with out of cage activity or exercise for the duration of the experiment. This initial 10-day period establishes a pattern and average of weight gain, impedance change, and food and water consumption for each dog. […] This assures the dogs will readily accept the bread ball as a drug delivery device. […] An appropriate volume of either OE or EE is placed into the center of a thick piece of dense sweet bread (non-porous), carefully rolled into a small ball so none of the to compound leaks out, and sprinkled on the outer surface with sugar or syrup as determined above. […] Electrical impedance of each dog is measured every other day.

[3] = Human study of estrone eicosenoate as anti-obesity drug (Example 3); type: in vivo; details: humans, oral capsule every morning, 0.75 or 0.375 micromoles/kg
Method: • 1) The required number of subjects are properly screened to fulfill the necessary qualifications, • 2) appropriate laboratory evaluation are performed, • 3) various aspects of positive drug response in a manner acceptable for drug approval are recorded, • 4) adverse drug effects are documented, and • 5) patients are adequately followed-up.
In this random, double-blind, placebo controlled study, subjects are selected to one of three groups and take a capsule orally every morning containing one of the following: a) sunflower oil (placebo), b) estrone eicosenoate dissolved in sunflower oil at a dose of 0.75 micromoles/kg, or c) estrone eicosenoate dissolved in sunflower oil at a dose of to 0.375 micromoles/kg.
Subjects report weekly for measurements and assessment of any side effects. […]
Different tests are performed at least five different times during each study, namely at the screening of potential participants, at the beginning of the study, weekly during the trials, at the end of the first 4 week period and at the end of the second 4 week treatment period. • 1) SCREENING: Subjects are screened to exclude hypothyroidism, pregnancy, and heart disease. […] Subjects selected to participate in the studies have the following initial measurements: WEIGHT, WAIST to HIP RATIO, HEIGHT, BMI (calculated), BODY FAT % & TOTAL BODY FAT (via bioelectrical impedance method). […]

CCCCCCCC/C=C\CCCCCCCCCC(=O)Oc1ccc2c(c1)CC[C@@H]1[C@@H]2CC[C@]2(C)C(=O)CC[C@@H]12 [EE, estrone eicosenoate]
concentration at which agonist activity begins [1]: 1.0 nM
weight loss compared with dogs receiving oleoyl-estrone [2]: greater weight loss
appetite [3]: reduces appetite
weight loss, loss of body fat, and/or decrease of body fat% [3]: produces weight loss
